Entries after “also recorded” stand apart in the source; their conditions may differ. Like-named read-outs stand apart in the source and are kept apart here.
What was measured:
MII egg [1] = assay: Confocal imaging of zinc in live MII eggs; assay type: cell-based, mouse
From the text: [formula] [formula] [formula] where r(t) is the anisotropy, P(t) is the polarization, Ivv and Ivh are intensities with polarization in the vertical plane and the excitation in the vertical and horizontal planes respectively, Ihv and Ihh are intensities with polarization in the horizontal plane and the excitation in the vertical and horizontal planes respectively, and G is a g-factor that corrects for instrument sensitivity in the horizontal and vertical planes. Metal content of NMR samples. Inductively coupled plasma mass spectrometry (ICP-MS) was performed on a Thermo iCAP Q ICP-MS. 1 mg/mL of ZincBY-1 or ZincBY-4 in acetonitrile-d3 or acetonitrile-d3 only was evaporated overnight at 70° C. 150 μL of HNO3 was added and the samples were digested overnight at 70° C. Samples were diluted to a final nitric acid concentration of 3%. ICP-MS was operated in collision cell mode to reduce polyatomic interferences. An internal standard comprising ^7Li, ^89Y, and ^115In was used. Each sample was acquired using one survey run (10 sweeps) and three main (peak jumping) runs (100 sweeps). Data was fit to a standard curve using a standard containing ^45Sc, […], ^51V, ^52Cr, ^55Mn, ^56Fe, ^59Co, ^58Ni, ^63Cu, and ^64Zn from 5 ppb to 1000 ppb. Only ^56Fe and ^64Zn were detected in the samples above background levels. Computational Analysis of ZincBY-1 and ZincBY-4. All density functional theory (DFT) calculations were performed using version 4.0.1 of the ORCA electronic structure package (Ref. B6; incorporated by reference in its entirety). Guided by the results of earlier studies on BODIPY derivatives (Ref. B7; incorporated by reference in its entirety), the PBE0 functional (Refs. B8-B10; incorporated by reference in their entireties) was used to optimize the geometries of all molecules studied, while time dependent DFT (TD-DFT) calculations and charge analysis through the CHarges from ELectrostatic Potentials using a Grid-based method (CHELPG) (Ref. B11; incorporated by reference in its entirety) were performed with the oB97-XD3 functional (Ref. B12; incorporated by reference in its entirety). All calculations utilized the def2-TZVP basis set (Ref B13; incorporated by reference in its entirety) with the resolution of the identity approximation coupled with the chain of spheres exchange method (RIJCOSX) (Refs. B14-B16; incorporated by reference in their entireties), using the def2/J auxiliary basis (Ref B17; incorporated by reference in its entirety). Implicit solvation effects were included through the conductor like polarizable continuum model (CPCM) (Ref B18; incorporated by reference in its entirety). Calculated spectra were broadened by Gaussians of width 0.2 eV, and red shifted by 0.64 eV to better match the experimental spectra per Momeni and Brown (Ref. B7; incorporated by reference in its entirety). Animals and Egg Collection Mouse. To collect MII-arrested eggs, female mice of at least 5 weeks in age were injected with 5 IU pregnant mare serum gonadotropin (PMSG) followed by 5 IU human chorionic gonadotropin (hCG) 48 hours later. Intact cumulus-oocyte complexes (COCs) were isolated from the oviducts 15 hours after the administration of hCG. Cumulus cells were denuded using 0.3% (w/v) hyaluronidase. Animals were treated in accordance with the US National Institutes of Health Guide for the Care and Use of Laboratory Animals. Food and water were given ad libitum. The Northwestern University Institutional Animal Care and Use Committee approved all the protocols. C. Elegans. Wildtype strain Bristol N2 was used as a control strain in fluorescence microscopy experiments. EU1067: unc-119(ed3) ruIs32[unc-119(+) pie-1^promoter::GFP::H2B] III; ruIs57[unc-119(+) pie-P1^promoter:GFP::tubulin] was used as a marker for cortical granules in fluorescence microscopy experiments. EU1067 was provided by the Caenorhabditis Genetics Center (CGC). […]

[2] = cited from earlier work; for Brightness (ε*Φ/1000) / Extinction Coefficient (ε) / Quantum Yield (Φ) / λAbs (max) / λEm (max): values reported in Que et al.
MII egg [3] = conditions: previously reported; cited from earlier work

Compound | excitation at 488 nm in the MII egg (MII egg [1]; 50 nM probe) | excitation at 552 nm in the MII egg (MII egg [1]; 50 nM probe) | region of fluorescence emission in MII eggs (MII egg [1]; 50 nM probe, 488 nm excitation) | effect of TPEN on fluorescence in stained MII eggs (MII egg [1]; TPEN 5 μM) | spectral overlap with TubulinTracker Green in the MII egg (MII egg [1]; single excitation at 488 nm) | fluorescence change on chemical activation (ionomycin) of MII eggs (MII egg [1]; time lapse imaging, ionomycin 5 μM) | usable working concentration (MII egg [1]; where other probes require micromolar amounts) [nM] | Stokes shift in cells (MII egg [1]; within cells) [nm] | Brightness (ε*Φ/1000) ([2]; Apo) | Extinction Coefficient (ε) ([2]; Apo) | Quantum Yield (Φ) ([2]; Apo) | λAbs (max) ([2]; Apo) [nm] | λEm (max) ([2]; Apo) [nm] | Brightness (ε*Φ/1000) ([2]; Zn-bound) | Extinction Coefficient (ε) ([2]; Zn-bound) | Quantum Yield (Φ) ([2]; Zn-bound) | λAbs (max) ([2]; Zn-bound) [nm] | λEm (max) ([2]; Zn-bound) [nm] | Stokes shift ([2]; literature (Ref. A18)) [nm] | working concentrations lower than those employed with other probes (MII egg [3])
CC(=O)NCCOc1ccc2n1[B-](F)(F)[N+]1=C(N(CCN(Cc3ccccn3)Cc3ccccn3)Cc3ccccn3)C=CC1=C2c1c(C)cc(C)cc1C [ZincBY-4, N-(2-((7-((2-(bis(pyridin-2-ylmethyl)amino)ethyl)(pyridin-2-ylmethyl)amino)-5,5-difluoro-10-mesityl-5H-5λ4,6λ4-dipyrrolo[1,2-c:2′,1′-f][1,3,2]diazaborinin-3-yl)oxy)ethyl)acetamide] | only ZincBY-4 exhibits a strong fluorescence intensity upon excitation at 488 nm; also recorded: Only ZincBY-4 was readily excited at 488 nm | both probes were excitable at 552 nm | 575-750 nm | loss of fluorescence signal in the vesicle region; also recorded: loss in fluorescence was observed | virtually no ZincBY-4 emission detected in the 495-530 nm emission channel; also recorded: virtually no spectral overlap between the two probes | increase in fluorescence intensity outside the egg while fluorescence intensity is lost in the periphery region; also recorded: both loss of zinc from the zinc granule region and increase of zinc outside the cell without the need of a second probe was observed | 50 | ~100 | – | – | – | – | – | – | – | – | – | – | – | –
COc1ccc2n1[B-](F)(F)[N+]1=C(N(CCN(Cc3ccccn3)Cc3ccccn3)Cc3ccccn3)C=CC1=C2c1c(C)cc(C)cc1C [ZincBY-1, reference compound] | Only ZincBY-4 was readily excited at 488 nm | both probes were excitable at 552 nm | – | – | – | – | – | – | 0.57(6) M^−1cm^−1 | 1.1(0.05) × 10^4 M^−1cm^−1 | 0.052(3) | 533 | 560 | 2.6(5) M^−1cm^−1 | 2.0(3) × 10^4 M^−1cm^−1 | 0.13(2) | 533 | 543 | 11 | 20-200 fold
